Experimental data: the supplement of paper PMC10307832

Assays:
Assay in all cases: relative viability (nuclei count vs DMSO), 5 days (fraction); higher = more cells survive
[1] = compound: COc1cc(N2CCC(N3CCN(C)CC3)CC2)ccc1Nc1ncc(Cl)c(Nc2ccccc2S(=O)(=O)C(C)C)n1 [NVP-TAE684] + Nc1ncn([C@H]2C[C@H](O)[C@@H](CO)O2)c(=O)n1 [Decitabine] (partner 2 µM)
Summary of the method: (§1)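 Medians of duplicate plates are given as relative viability. That measure is the nuclei count in treated wells divided by the count in vehicle wells. Counts were taken on 4× images of lung cancer cell lines in 1536-well plates, 5 days after pin-tool dosing the day after seeding with one drug alone or a fixed anchor-drug dose plus five library-drug doses (not always all listed) in √10 steps.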

[2] = compound: C#Cc1cccc(Nc2ncnc3cc(OC)c(OCCCCCCC(=O)NO)cc23)c1 [CUDC-101] + O=C(c1cc(Cc2n[nH]c(=O)c3ccccc23)ccc1F)N1CCN(C(=O)C2CC2)CC1 [Olaparib] (partner 8 µM)
Summary of the method: as §1

[3] = compound: C1=CC=C2C(=C1)N=C(S2)C(C#N)C3=NC(=NC=C3)NCCC4=CN=CC=C4 + Nc1ncn([C@H]2C[C@H](O)[C@@H](CO)O2)c(=O)n1 [Decitabine] (partner 2 µM)
Summary of the method: as §1

[4] = compound: C1=CC=C2C(=C1)N=C(S2)C(C#N)C3=NC(=NC=C3)NCCC4=CN=CC=C4 + CCNC(=O)c1noc(-c2cc(C(C)C)c(O)cc2O)c1-c1ccc(CN2CCOCC2)cc1 [Luminespib] (partner 0.01 µM)
Summary of the method: as §1

## UMC-11
[1]; first compound 0.2 µM
  relative viability: 0.582
[1]; first compound 0.6325 µM
  relative viability: 0.581
[1]; first compound 2 µM
  relative viability: 0.346
[2]; first compound 0.01 µM
  relative viability: 0.29
[2]; first compound 0.03162 µM
  relative viability: 0.707
[2]; first compound 0.1 µM
  relative viability: 0.377
[2]; first compound 0.3162 µM
  relative viability: 0.237
[2]; first compound 1 µM
  relative viability: 0.119
[3]; first compound 0.005 µM
  relative viability: 0.546
[3]; first compound 0.01581 µM
  relative viability: 0.65
[3]; first compound 0.05 µM
  relative viability: 0.456
[3]; first compound 0.1581 µM
  relative viability: 0.589
[3]; first compound 0.5 µM
  relative viability: 0.59
[4]; first compound 0.005 µM
  relative viability: 0.735
[4]; first compound 0.01581 µM
  relative viability: 1.04
[4]; first compound 0.05 µM
  relative viability: 0.861
[4]; first compound 0.1581 µM
  relative viability: 1.03
[4]; first compound 0.5 µM
  relative viability: 0.957
